PubChem BioAssay AID282 (DTP/NCI, 2004)
Where “and” joins values, the source holds several entries; their conditions need not be identical. Equal entries are not always repeated. Inconclusive results and toxic doses are left out. The calls were made as follows: active = survival T/C of 150% or more; inactive = T/C below 125% in these data. Starred links: 1 amine or outer side, 2 acyl side, 3 side chain; linkers in the order of their positions; H or OH if unused. Positions of bridges follow the written chain, without caps; N, C: chain ends. Non-standard residues stand in square brackets, D forms with d. Residues, ends and D or L forms follow the SMILES beside them. Chains are numbered I, II in the order given. Actinocin(9to1) = Cc1c2oc3c(C)ccc(C(=O)[*:1])c3nc-2c(C(=O)[*:2])c(N)c1=O; aThr = C[C@H](O)[C@H](N)C(=O)O; NMeV = CN[C@H](C(=O)O)C(C)C; Sar = CNCC(=O)O

System: BDF1 mice, L1210 terephthalanilide-resistant leukemia ip, survival T/C
Test: NCI In Vivo Anticancer Drug Screen. Data for tumor model L1210 Leukemia resistant to A Terephthalanilide; NSC 38280 (intraperitoneal) in B6D2F1 (BDF1) mice
Conditions: endpoint: mean survival time, higher = longer survival
Description: The antitumor activity of compounds was measured in mice bearing transplantable tumors. Survival or tumor size were measured and the results are expressed as the measurement made in the treated group (T) divided by the measurement made in the vehicle treated control group (C). The tumor model used in this assay is L1210 Leukemia resistant to A Terephthalanilide; NSC 38280 (intraperitoneal) in B6D2F1 (BDF1) mice

[1] = dose: 8.0 mg/kg/injection, schedule: Q01DX010 (ip), vehicle: saline
[2] = dose: 62.5 mg/kg/injection, schedule: Q01DX Z (ip), vehicle: carboxymethylcellulose (CMC)
[3] = dose: 125.0 mg/kg/injection, schedule: Q01DX Z (ip), vehicle: carboxymethylcellulose (CMC)
[4] = dose: 125.0 mg/kg/injection, schedule: Q01DX010 (ip), vehicle: saline
[5] = dose: 250.0 mg/kg/injection, schedule: Q01DX010 (ip), vehicle: saline
[6] = dose: 500.0 mg/kg/injection, schedule: Q01DX010 (ip), vehicle: saline
[7] = dose: 500.0 mg/kg/injection, schedule: Q01DX Z (ip), vehicle: saline
[8] = dose: 62.5 mg/kg/injection, schedule: Q01DX010 (ip), vehicle: saline
[9] = dose: 4.0 mg/kg/injection, schedule: Q01DX010 (ip), vehicle: other
[10] = dose: 8.0 mg/kg/injection, schedule: Q01DX010 (ip), vehicle: other
[11] = dose: 5.0 mg/kg/injection, schedule: Q01DX010 (ip), vehicle: saline
[12] = dose: 25.0 mg/kg/injection, schedule: Q01DX010 (ip), vehicle: saline
[13] = dose: 50.0 mg/kg/injection, schedule: Q01DX010 (ip), vehicle: saline
[14] = dose: 100.0 mg/kg/injection, schedule: Q01DX010 (ip), vehicle: saline

Measured: T/C

Nc1nc(SCc2ccccc2)c2[nH]cnc2n1
inactive: [1] 92 % of control and 104 % of control | dose: 16.0 mg/kg/injection, schedule: Q01DX010 (ip), vehicle: saline 104 % of control | dose: 32.0 mg/kg/injection, schedule: Q01DX010 (ip), vehicle: saline 115 % of control | [2] 111 % of control | dose: 64.0 mg/kg/injection, schedule: Q01DX010 (ip), vehicle: saline 95 % of control and 114 % of control | [3] 107 % of control

CCOC(N)=O
inactive: dose: 50.0 mg/kg/injection, schedule: Q01DX Z (ip), vehicle: saline 107 % of control | dose: 100.0 mg/kg/injection, schedule: Q01DX Z (ip), vehicle: saline 93 % of control | [4] 100 % of control and 103 % of control | dose: 200.0 mg/kg/injection, schedule: Q01DX Z (ip), vehicle: saline 106 % of control | [5] 100 % of control and 103 % of control | dose: 400.0 mg/kg/injection, schedule: Q01DX Z (ip), vehicle: saline 106 % of control | [6] 99 % of control and 101 % of control | [7] 96 % of control | dose: 1000.0 mg/kg/injection, schedule: Q01DX Z (ip), vehicle: saline 91 % of control

CS(=O)(=O)OCCCl
inactive: dose: 18.8 mg/kg/injection, schedule: Q01DX010 (ip), vehicle: saline 99 % of control and 108 % of control | dose: 37.5 mg/kg/injection, schedule: Q01DX010 (ip), vehicle: saline 90 % of control and 103 % of control | dose: 44.0 mg/kg/injection, schedule: Q01DX Z (ip), vehicle: saline 103 % of control | dose: 75.0 mg/kg/injection, schedule: Q01DX010 (ip), vehicle: saline 107 % of control and 108 % of control | dose: 87.5 mg/kg/injection, schedule: Q01DX Z (ip), vehicle: saline 115 % of control | dose: 150.0 mg/kg/injection, schedule: Q01DX010 (ip), vehicle: saline 89 % of control | dose: 175.0 mg/kg/injection, schedule: Q01DX Z (ip), vehicle: saline 119 % of control

CC/C(=C(/CC)c1ccc(O)cc1)c1ccc(O)cc1
inactive: dose: 12.5 mg/kg/injection, schedule: Q01DX010 (sc), vehicle: steriod suspending solution 96 % of control and 102 % of control | dose: 25.0 mg/kg/injection, schedule: Q01DX010 (sc), vehicle: steriod suspending solution 89 % of control and 102 % of control | dose: 50.0 mg/kg/injection, schedule: Q01DX010 (sc), vehicle: steriod suspending solution 102 % of control and 103 % of control | dose: 100.0 mg/kg/injection, schedule: Q01DX010 (sc), vehicle: steriod suspending solution 96 % of control and 98 % of control

OCC1OC(n2cnc3c(Cl)ncnc32)C(O)C1O (stereo not drawn)
inactive: [8] 90 % of control and 99 % of control | [4] 96 % of control and 101 % of control | [5] 97 % of control and 103 % of control | [6] 101 % of control and 106 % of control

Cc1c2oc3c(C)ccc(C(=O)N[C@@H]4C(=O)N[C@H](C(C)C)C(=O)N5CCC[C@H]5C(=O)N(C)CC(=O)N(C)[C@@H](C(C)C)C(=O)O[C@H]4C)c3nc-2c(C(=O)N[C@@H]2C(=O)N[C@H](C(C)C)C(=O)N3CCC[C@H]3C(=O)N(C)CC(=O)N(C)[C@@H](C(C)C)C(=O)O[C@H]2C)c(N)c1=O (I: [aThr][dV]P[Sar][NMeV] / II: [aThr][dV]P[Sar][NMeV]; ester I:1-I:C, II:1-II:C; linker I:N-II:N via Actinocin(9to1))
inactive: dose: 12.5 micrograms/kg/injection, schedule: Q01DX010 (ip), vehicle: other 117 % of control and 118 % of control | dose: 25.0 micrograms/kg/injection, schedule: Q01DX010 (ip), vehicle: other 121 % of control and 118 % of control | dose: 50.0 micrograms/kg/injection, schedule: Q01DX010 (ip), vehicle: other 124 % of control and 117 % of control | dose: 100.0 micrograms/kg/injection, schedule: Q01DX010 (ip), vehicle: other 95 % of control and 103 % of control

O=C(Nc1ccc(C2=NCCCN2)cc1)c1ccc(C(=O)Nc2ccc(C3=NCCCN3)cc2)cc1
inactive: dose: 1.0 mg/kg/injection, schedule: Q01DX010 (ip), vehicle: other 113 % of control and 114 % of control | dose: 2.0 mg/kg/injection, schedule: Q01DX010 (ip), vehicle: other 116 % of control | [9] 123 % of control and 120 % of control | [10] 90 % of control and 95 % of control

CN(C)c1ccc(/C=C\c2ccnc3ccccc23)cc1
inactive: [11] 98 % of control | [1] 100 % of control | dose: 12.0 mg/kg/injection, schedule: Q01DX010 (ip), vehicle: saline 100 % of control | dose: 18.0 mg/kg/injection, schedule: Q01DX010 (ip), vehicle: saline 92 % of control and 95 % of control | dose: 18.75 mg/kg/injection, schedule: Q01DX Z (ip), vehicle: carboxymethylcellulose (CMC) 101 % of control | dose: 27.0 mg/kg/injection, schedule: Q01DX010 (ip), vehicle: saline 89 % of control | dose: 37.5 mg/kg/injection, schedule: Q01DX Z (ip), vehicle: carboxymethylcellulose (CMC) 95 % of control | dose: 50.0 mg/kg/injection, schedule: Q01DX Z (ip), vehicle: carboxymethylcellulose (CMC) 90 % of control

CSc1ncnc2nc[nH]c12
inactive: [12] 98 % of control and 100 % of control | dose: 31.25 mg/kg/injection, schedule: Q01DX Z (ip), vehicle: carboxymethylcellulose (CMC) 102 % of control | [13] 100 % of control and 102 % of control | [2] 105 % of control | [14] 102 % of control and 107 % of control | [3] 113 % of control | dose: 200.0 mg/kg/injection, schedule: Q01DX010 (ip), vehicle: saline 102 % of control and 105 % of control

c1ccc(CCSc2ncnc3nc[nH]c23)cc1
inactive: [8] 90 % of control | [4] 104 % of control | [5] 99 % of control

C[n+]1ccc(NC(=O)c2ccc(NC(=O)c3cccc(C(=O)Nc4ccc(C(=O)Nc5cc[n+](C)cc5)cc4)c3)cc2)cc1
inactive: [11] 87 % of control | dose: 20.0 mg/kg/injection, schedule: Q01DX010 (ip), vehicle: saline 116 % of control

CCN(CC)CCNc1ccc(C)c2sc3ccccc3c(=O)c12
inactive: [12] 101 % of control and 105 % of control | dose: 25.0 mg/kg/injection, schedule: Q01DX Z (ip), vehicle: water 111 % of control | [13] 105 % of control and 111 % of control | [14] 111 % of control | dose: 100.0 mg/kg/injection, schedule: Q01DX Z (ip), vehicle: water 115 % of control

O=C(Nc1ccc(C2=NCCN2)cc1)c1ccc(C(=O)Nc2ccc(C3=NCCN3)cc2)cc1
inactive: [9] 112 % of control and 115 % of control | [10] 123 % of control and 114 % of control | dose: 16.0 mg/kg/injection, schedule: Q01DX010 (ip), vehicle: other 112 % of control and 117 % of control | dose: 32.0 mg/kg/injection, schedule: Q01DX010 (ip), vehicle: other 114 % of control and 117 % of control | dose: 64.0 mg/kg/injection, schedule: Q01DX010 (ip), vehicle: other 103 % of control and 110 % of control

CSCS(=O)C[C@H](CO)NC(=O)/C=C/c1c(C)[nH]c(=O)[nH]c1=O (stereo partly drawn)
inactive: dose: 62.5 micrograms/kg/injection, schedule: Q01DX010 (ip), vehicle: saline 100 % of control | dose: 125.0 micrograms/kg/injection, schedule: Q01DX010 (ip), vehicle: saline 100 % of control | dose: 250.0 micrograms/kg/injection, schedule: Q01DX010 (ip), vehicle: saline 102 % of control | dose: 500.0 micrograms/kg/injection, schedule: Q01DX010 (ip), vehicle: saline 102 % of control

NC12CC3CC(CC(C3)C1)C2
inactive: [12] 108 % of control | [13] 106 % of control | [14] 101 % of control

CC(=O)N(C)C
inactive: [8] 94 % of control and 105 % of control | [4] 92 % of control and 97 % of control | dose: 125.0 mg/kg/injection, schedule: Q01DX Z (ip), vehicle: saline 108 % of control | [5] 90 % of control and 96 % of control | dose: 250.0 mg/kg/injection, schedule: Q01DX Z (ip), vehicle: saline 112 % of control | [6] 96 % of control and 105 % of control | [7] 110 % of control | dose: 750.0 mg/kg/injection, schedule: Q01DX Z (ip), vehicle: saline 114 % of control
